One data set concerns male SHR rats. The experiment in a line: Blood pressure and 6-keto PGF1-α in blood of SHR after 14 days. As to conditions: 100 mg/kg/day p.o.; for Content of 6-keto-PGF1-α in blood: control 3; for Blood pressure: control 195. Format: in vivo, rat (SHR). The procedure:
After forcibly administering the present substance (Specimens Nos. 4, 7 and 8) every day for successive 14 days at a rate of 100 mg/kg/day by oral route to groups of male SHR rats, their whole blood was collected on 15th day to obtain the plasma fraction. The ether-extract of the plasma fraction was separated and isolated by thin-layer chromatography and after converting the isolated fraction into methyloximesilyl derivatives, the alteration of 6-keto PGF1-α was examined by gas-chromatography and mass-spectroscopy. In the group to which the present substance was administered, the content of 6-keto PGF1-α was larger together with the reduced blood pressure than in control. This parallelism of the effects leads to the presumption that the effect of the present invention is mediated by prostaglandin.

The next data set concerns dog's stomach. It is filed as in vivo, Beagle dog. As to conditions: dog, in vivo. The procedure: Five grams of the present substance (each of Specimens Nos. 1, 2, 3, 4, 5, 6, 7, 8, 9, 10 and 11) and of aspirin were respectively administered to each Beagle of body weight of 9 to 12 kg as an aqueous suspension in distilled water of adjusted pH of 3, and after 90 min of the administration, the state of hemorrhage in the dog's stomach was examined.

Data set [1] in a line: Acute oral toxicity (Litchfield-Wilcoxon). As to conditions: in vivo, mouse, 7 days. The procedure:
The acute oral toxicity of the present substances were examined by using groups of ICR-JCL mouse and orally administering each of the representatives of present substances forcibly as an aqueous solution in distilled water or as an aqueous suspension also in distilled water at predetermined dosages, respectively. After observing the toxicological symptoms, if any, for 6 days, and recording the mortality until 7th day of the administration, LD50 (acute oral) was calculated by the method of Litchfield-Wilcoxon, and autopsy was carried out on dead mice and live mice to obtain informations.

In data set [2] the test system is washed platelets, malondialdehyde. In words: Level of malondialdehyde (MDA) of platelets. Format: cell-based, human. As to conditions: Ca ionophore A-23187, 5 min, 37° C. The procedure:
PRP collected from human blood was centrifugated and washed to be "washed platelets". After adding one of the present substances (Specimens Nos. 4, 7 and 8) to the washed platelets, Caionophore A-23187 was further added to them and the mixture was incubated for 5 minutes at 37° C. Then, thiobarbituric acid was added to the incubated mixture, as a colour developer, and the mixture was extracted with a solvent mixture of methanol and butanol. The absorption at 535 nm was colorimetrically read to determine the amount of malondialdehyde (MDA). […] From this fact also, the participation of the present substance in the metabolism of PGs is presumable.

Another data set has as its system Ehrlich cancer. The experiment in a line: Cancer proliferation and PGE in the cancer cells (Ehrlich). It is filed as in vivo, C57BL/6 mouse. As to conditions: 100 mg/kg i.p. every other day, 14th day; for Weight of cancer: control 1.30; for Content of PGE in the cancer: control 1.77. The procedure: Following the same method as in Example 12, the anti-cancer action against transplanted Ehrlich cancer in C57BL/6 mouse, and the amount of PGE in the cancer cells in proliferation in the living body of the mouse were examined in the cases where each one compound of the present invention, Specimens Nos. 1, 2, 3, 4, 5, 6, 8, 9, 10 and 11 was intraperitoneally administered every other day from the next day of the transplantation in total 6 times at a dosage of 100 mg/kg.
The results of determination of the weight of cancer extirpated from the sacrificed mouse on 14th day of the transplantation of the cancer cells, 1×10^6 in number per animal, and content of PGE of the extirpated cancer are shown in the following Table 13: […]

Data set [3] deals with platelets (3 times concentrated PRP), cyclic AMP. In words: Level of cyclic AMP in platelets. Format: cell-based. As to conditions: room temperature, 5 min. The procedure: PRP (platelet rich plasma) was prepared by the predetermined method and it was centrifugated for 20 min at 700XG to obtain a supernatant liquid named PPP (platelet poor plasma). The precipitate was re-floated in 1/3 times by volume of PPP to prepare 3 times concentrated PRP.
In the thus prepared concentrated PRP, each aqueous solution of the present substances of a pre-determined concentration (in this case, Specimens Nos. 4, 7 and 8) and an aqueous physiological saline solution, and the mixture was incubated at room temperature for 5 min. Then, the procedures of boiling, homogenating and centrifugating were carried out in this order, and 50 μl of the supernatant liquid was used for measuring cyclic AMP. The measurement was carried out following the method of Gilman. As a positive control, PGE1 was used.

The subject of another data set is cats. In words: Pyrexia caused by pyrogen (Shigella dysentriae o-antigen) and PGE in c.s.f. It is filed as in vivo, cat. The procedure:
The experiments were carried out on cats weighing 3 to 3.5 kg. In an aseptic operation under intraperitoneally administered sodium pentobarbitone at 36 mg/kg, a Collison cannula was implanted into the rostral part of the third ventricle of the cat.
A few days after implantation of the cannula, when the cat had recovered from the operation, specimens of cerebrospinal fluid were collected without anesthesia, whilst the cat was kept unrestrained in its cage, and its rectal temperature was recorded.
The specimens of cerebrospinal fluid (c.s.f.) were assayed immediately after collection, or after having been stored at -2° for 24 to 48 hours, and the determination of PGE in the specimens was carried out as in Example 9 using ^3 H-Prostaglandin E Radioimmunoassay Kit (manufactured by Clinical Assay Co., USA). Rectal temperature was recorded at room temperature (21° to 23° C.) with the thermistor probe inserted about 10 cm deep into the rectum.
As the pyrogen, somatic type o-antigen of Shigella dysentriae was used, and after dissolving 75 ng of the pyrogen into 0.15 ml of a pyrogen-free artificial c.s.f., the solution was injected into the third ventricle through the implanted cannula to induce fever.
After 2 hours of administration, the rectal temperature was measured to confirm the occurrence of pyrexia and then the present substance (each of Specimens Nos. 4, 7 and 8) was forcibly administered orally as an aqueous solution in distilled water at a rate of 100 mg/kg, control being administered only with distilled water in this time.
The rectal temperature of all animals was measured after one hour of the administration of the present substance.
The c.s.f. for the determination of its content of PGE was collected respectively before and after 2 hours of the injection of the pyrogen and after one hour of the administration of the present substance.

Setting [4] is: 1 hour after admin. Specimen, 100 mg/kg p.o., control 10.
Where [5] appears, read: 1 hour after admin. Specimen, 100 mg/kg p.o., control 40.7.
[6] abbreviates: 2 hours after admin. pyrogen (before dosing).
Where [7] appears, read: before admin. pyrogen (before dosing).

These results are taken from patent publication US4440757A, “Pharmaceutical composition comprising derivative of aminobenzoic acid for regulating prostaglandin” (priority 1978, dated 1984).

The term LD50 denotes the dose at which mortality reaches 50%. High values mean lower toxicity, low ones greater toxicity. `O=C(O)c1ccc(NC2O[C@H](CO)[C@@H](O)[C@H](O)[C@@H]2O)cc1` (stereo partly drawn) [Specimen No. 4, Sodium p-aminobenzoate-N--D-mannoside]: in the data set on male SHR rats, the “Content of 6-keto-PGF1-α in blood” value is 7 ng/mL and the Blood pressure is recorded as 155 mmHg. In addition, the “hemorrhage in the stomach” value with dog's stomach is “no hemorrhage in the stomach was found”. The same compound displayed an LD50 at 168 h in data set [1] of over 10000 mg/kg. In addition, the “production of malondialdehyde (MDA) (FIG. 8)” value (“production of malondialdehyde” below) in data set [2] was “suppressed the production of MDA”. In addition, in the data set on Ehrlich cancer, the Weight of cancer amounted to 0.56 g and the “Content of PGE in the cancer” value turned out to be 4.19 ng/g. The “level of intra-platelet cyclic AMP (FIG. 7)” value (shortened to “level”) in data set [3] is given as “raising the level of intra-platelet cellular cyclic AMP”. Besides, in the data set on cats (setting [4]), the “Amount of PGE in c.s.f.” value is 5 ng/ml of c.s.f. In addition, in the data set with cats (setting [5]), the Rectal temperature is 39.9 °C. In the data set on cats (setting [6]), the “Amount of PGE in c.s.f.” value is on record as 11 ng/ml of c.s.f and the Rectal temperature is 41.3 °C. Moreover, in the data set with cats (setting [7]), the “Amount of PGE in c.s.f.” value is given as 2.6 ng/ml of c.s.f and the Rectal temperature was found to be 39.0 °C.
Regarding `C[C@@H]1OC(Nc2ccc(C(=O)O)cc2)[C@H](O)[C@H](O)[C@H]1O` (stereo partly drawn) [Specimen No. 8, Sodium p-aminobenzoate-N--L-rhamnoside], in the data set with male SHR rats, the “Content of 6-keto-PGF1-α in blood” value was determined as 7 ng/mL and the Blood pressure came to 150 mmHg. Also, the “hemorrhage in the stomach” value in the data set on dog's stomach is “no hemorrhage in the stomach was found”. In data set [1], this compound yielded an LD50 at 168 h of 12800 mg/kg. Also, in data set [2], the “production of malondialdehyde” value is “suppressed the production of MDA”. Also, in the data set on Ehrlich cancer, the Weight of cancer was determined as 0.72 g and the “Content of PGE in the cancer” value was determined as 4.03 ng/g. The “level” value in data set [3] is given as “raising the level of intra-platelet cellular cyclic AMP”. Moreover, the “Amount of PGE in c.s.f.” value in the data set on cats (setting [4]) is listed as 8 ng/ml of c.s.f. Further, the Rectal temperature in the data set on cats (setting [5]) was 40.0 °C. In the data set on cats (setting [6]), the “Amount of PGE in c.s.f.” value is on record as 13 ng/ml of c.s.f and the Rectal temperature was determined as 41.5 °C. This compound also gave a Rectal temperature with cats (setting [7]) of 39.1 °C.
On to `O=C(O)c1ccc(NC2OC[C@@H](O)[C@H](O)[C@H]2O)cc1` (stereo partly drawn) [Specimen No. 7, Sodium p-aminobenzoate-N--D-xyloside], for which, in the data set with male SHR rats, the “Content of 6-keto-PGF1-α in blood” value was found to be 6.5 ng/mL and the Blood pressure worked out at 160 mmHg. Also, the “hemorrhage in the stomach” value with dog's stomach is “no hemorrhage in the stomach was found”. Besides, in data set [1], the LD50 at 168 h came out at 11800 mg/kg. In addition, the “production of malondialdehyde” value in data set [2] was “suppressed the production of MDA”. Further, in the data set on Ehrlich cancer, the Weight of cancer amounted to 0.75 g and the “Content of PGE in the cancer” value is reported as 3.98 ng/g. Besides, the “level” value in data set [3] is “raising the level of intra-platelet cellular cyclic AMP”. For the same compound, the “Amount of PGE in c.s.f.” value with cats (setting [4]) is on record as 6 ng/ml of c.s.f. The Rectal temperature with cats (setting [5]) worked out at 39.5 °C. For the same compound, in the data set on cats (setting [6]), the “Amount of PGE in c.s.f.” value was 16 ng/ml of c.s.f and the Rectal temperature was 41.1 °C. For the same compound, in the data set with cats (setting [7]), the “Amount of PGE in c.s.f.” value is 2.4 ng/ml of c.s.f and the Rectal temperature came out at 38.8 °C.
